Reference: US20040023841A1, “Combinatorial method for rapid screening of drug delivery formulations” (priority 2003, published 2004)

Tests used:
[1] = Loss of drug from donor hole of Teflon disc placed on stratum corneum; assay type: in vitro ADME; details: drug in PBS, 2 mm hole, human SC, 24 hours contact, liquid scintillation counting
Protocol: (§1) The following experiments were performed to assess the usefulness of a method, which determines the loss of a test substance from a formulation over time. Experiments were performed to assess whether this method can be used for estimation of skin permeability to drugs. For these studies, phosphate buffered saline was used as a model formulation. […] Ten holes were drilled into the disc and each hole was about 2 mm wide. The disc was then placed on the SC prepared from human skin. Solutions of nine different drugs in PBS were placed in various holes. The concentration of drugs in the solutions were measured at time zero. The drugs were allowed to remain in contact with the skin for 24 hours. Samples were taken from the holes at the end of 24 hours and then analyzed using a liquid scintillation counter. The amount of drug lost from the donor hole was calculated. Permeability measurements of the same drugs were performed using conventional methods that use macroscopic diffusion cells.

[2] = Permeability measured by traditional experiments (macroscopic diffusion cells); assay type: in vitro ADME
Protocol: as §1

[3] = Conductivity enhancement of skin, Franz diffusion cells; assay type: in vitro ADME, pig; details: Franz diffusion cell, 0-2% in PBS, 24 hours
Protocol: A small stir bar and an Ag/AgCl disk electrode ([…] In-vivo Metrics) were added to the receiver chamber. In addition, the receiver chamber was filled with PBS. Pigskin was thawed and was mounted on the diffusion cell with the epidermis side facing up. The donor and the receiver compartments were clamped making sure there were no bubbles in the receiver chamber. Before each experiment, structural integrity of the skin was confirmed by measuring its conductivity. Skin samples with a resistivity less than 20 Kohm-cm^2 were assumed to be defective and not used. Skin conductivity was measured throughout the experiment to assess the effect of the formulation on skin structure. […] Each formulation was prepared in PBS. Current across the skin was measured over a period of 24 hours. The enhancement of skin conductivity was calculated as [formula] where It is the current across skin at time t, I0 being the current across skin at time 0.

[4] = Transport enhancement of radiolabelled mannitol into skin, 5x5 High Throughput array; assay type: in vitro ADME, pig; details: 5x5 array, 0-2% (w/v) in PBS, 7 hrs
Protocol: Screening of the formulations is performed using pigskin. The wells in the receiver plate are filled with PBS. The skin is placed on the receiver plate with the stratum corneum (SC) facing the donor plate. The donor plate is then placed on the skin and the entire assembly is clamped tightly using four screws. A mild vacuum is then applied to remove any excess PBS that may be pushed in to the wells in the receiver plate. Radiolabelled mannitol was added to all formulations prepared in PBS at a concentration of 10 μCi/mL. The donor compartments were filled with these formulations each formulation was filled in 1 well. The skin was then incubated for 7 hrs. The solutions from the donor compartment were removed at the end of incubation period. The skin was then gently rinsed to free any mannitol that could be sticking to the surface of the skin. The skin was then cut and dissolved in 0.5 M Solvable, a tissue and gel solubilizer from Packard Chemicals at 60° C. overnight. […] The transport enhancement at different test formulations is then calculated as [formula] where CF is the radiation count for a particular test formulation and CC is the radiation count for the control i.e. PBS alone without any enhancer.

[5] = Transport enhancement of radiolabeled mannitol into skin, Franz diffusion cells; assay type: in vitro ADME, pig; details: Franz diffusion cell, 0-2% (w/v) in PBS, 7 hrs
Protocol: The skin was incubated in the cells for 7 hrs. At the end of 7 hrs the skin was removed from the cell and dissolved in 0.5M Solvable, a gel and tissue solubilizer from Packard Chemicals, at 60° C. overnight. […] The enhancement of transdermal mannitol transport due to the formulations was calculated using the equation, E^T=CF/CC, where CF is the radiation count for a particular formulation and CC is the radiation count for the control which in this case is simply PBS with radiolabeled mannitol but no surfactant.

[6] = Conductivity enhancement of skin, 5x5 High Throughput array; assay type: in vitro ADME, pig; details: 5x5 array, 0-2% (w/v) in PBS, up to 25 hrs
Source text: This array is built as a pattern of a 5×5 matrix. This corresponds to 25 test wells, each well 7.5 mm in diameter. It consists of two polycarbonate plates each 0.5 inches thick. The top plate (donor plate) has 25 through holes (wells), diameter 7.5 mm, drilled in it, each of which acts as an isolated donor chamber similar to the donor chamber in the Franz diffusion cells. The bottom plate (receiver plate) also has holes (wells) drilled in a similar pattern as the donor plate and simulates the receiver compartment of the diffusion cells. All wells are isolated from each other for all practical purposes and each well acts like an individual diffusion cell. The skin is placed between the donor and receiver plate and the plate assembly is clamped using four screws as shown in the figure.
Screening of the formulations is performed using pigskin. The wells in the receiver plate are filled with PBS. The skin is placed on the receiver plate with the stratum corneum (SC) facing the donor plate. The donor plate is then placed on the skin and the entire assembly is clamped tightly using four screws. […]
The formulations to be tested are filled in the donor compartments. […] The current, measured at 100 Hz and 143 mVpp, varied between 1 μA at time 0 to 25-30 μA at time 25 hrs.
The conductivity enhancements at time t″ is then calculated as [formula] […]

[7] = Conductivity enhancement of skin, 10x10 High Throughput array; assay type: in vitro ADME, pig; details: 10x10 array, 0-2% (w/v) in PBS, up to 25 hrs, n=4
Protocol: This array is built as a pattern of 10×10 matrix. This corresponds to 100 test wells, each well 3 mm in diameter. The formulations to be tested are filled in the donor compartments. Each formulation is filled in 4 wells and each well can hold about 85 μL of the test formulation. Two 22 G 1½ needles are used as electrodes to measure current across the skin. One needle is stuck into the dermis and acts as the common electrode while the other needle is sequentially placed in each well to measure current. Current measurements are made across the skin periodically over a span of 25 hrs. […] The conductivity enhancement for a given formulation at time ‘t’ is then calculated as [formula] where It is the current across the skin at time ‘t’ and I0 is the current across the skin at time 0. […] The error bars correspond to the standard deviations. (n=4).

[8] = Transport enhancement of radiolabelled mannitol into skin, 10x10 High Throughput array; assay type: in vitro ADME, pig; details: 10x10 array, 0-2% (w/v) in PBS, 7 hrs
Protocol: Radiolabelled mannitol was added to all formulations prepared in PBS at a concentration of 10 μCi/mL. The donor compartments were filled with these formulations with each formulation filled in 4 wells. The skin was then incubated for 7 hrs. The solutions from the donor compartment were removed at the end of incubation period. The skin was then gently rinsed to free any mannitol that could be sticking to the surface of the skin. The skin was then cut and dissolved in 0.5 M Solvable, a tissue and gel solubilizer from Packard Chemicals, at 60° C. overnight. […] The transport enhancement at different test formulations is then calculated as [formula] where CF is the radiation count for a particular test formulation and CC is the radiation count for the control i.e. PBS alone without any enhancer.

SMILES | % Drug Lost from the Hole [1] [%] | Papp [2] [×10⁻⁶ cm/s] | further results
C[C@]12CCC(=O)C=C1CC[C@@H]1[C@@H]2[C@@H](O)C[C@]2(C=O)[C@@H](C(=O)CO)CC[C@@H]12 [Aldosterone] | 9 | 0.00833 | –
CCCCCCO [Hexanol] | 31 | – | –
c1ccc2ccccc2c1 [Napthalene] | 47 | – | –
CCCCCCCCCCCCCCCCCCO [Octadecanol] | 77 | 25 | –
CCCCCCCCO [Octanol] | 47 | 19.4 | –
CC(=O)[C@H]1CC[C@H]2[C@@H]3CCC4=CC(=O)CC[C@]4(C)[C@H]3CC[C@]12C [Progesterone] | 44 | 5.56 | –
CCCCCCCCCCCCOS(=O)(=O)[O-].[Na+] [SLS, Sodium Lauryl Sulfate] | – | – | Conductivity enhancement (It/I0) [3]: increases as a function of the SLS or TDAB concentration and reaches a maximum; Transport enhancement (amount of mannitol transported, CF/CC) [4]: increases monotonously as a function of the surfactant concentration; Transport enhancement (amount of mannitol transported, CF/CC) [5]: increases monotonously as a function of the surfactant concentration; Conductivity enhancement (It/I0) [6]: increases as a function of the SLS or TDAB concentration and reaches a maximum; Conductivity enhancement (It/I0) [7]: increases with increasing SLS or TDAB concentration and reaches a maximum after which it starts decreasing; Transport enhancement (amount of mannitol transported, CF/CC) [8]: increases monotonously as a function of the surfactant concentration
C[C@]12CC[C@H]3[C@@H](CCC4=CC(=O)CC[C@@]43C)[C@@H]1CC[C@@H]2O [Testosterone] | 24 | – | –
